Data as given in the NIST ThermoML archive (doi:10.1016/j.jct.2006.09.008).

Assay: molar heat capacity at constant pressure; mn = molality of the nth substance listed, in mol/kg
Details: 350 kPa, Liquid

O=[N+]([O-])[O-].O=[N+]([O-])[O-].[Mn+2] [manganese nitrate] + O
molar heat capacity at constant pressure [J/K/mol]
Details | m1 = 0.0132 | m1 = 0.0248 | m1 = 0.0503 | m1 = 0.0825 | m1 = 0.0836 | m1 = 0.1542 | m1 = 0.3085 | m1 = 0.5132
278.15 K | 75.63 | 75.56 | 75.42 | 75.25 | 75.25 | 74.9 | 74.27 | 73.62
283.15 K | 75.47 | 75.41 | 75.28 | 75.14 | 75.13 | 74.83 | 74.27 | 73.71
288.15 K | 75.36 | 75.31 | 75.19 | 75.07 | 75.06 | 74.79 | 74.3 | 73.8
293.15 K | 75.29 | 75.24 | 75.14 | 75.02 | 75.02 | 74.78 | 74.34 | 73.88
298.15 K | 75.24 | 75.2 | 75.1 | 75 | 75 | 74.78 | 74.38 | 73.96
303.15 K | 75.21 | 75.17 | 75.08 | 74.99 | 74.99 | 74.78 | 74.42 | 74.04
308.15 K | 75.2 | 75.16 | 75.08 | 74.99 | 74.99 | 74.8 | 74.46 | 74.11
313.15 K | 75.2 | 75.16 | 75.09 | 75.01 | 75 | 74.83 | 74.51 | 74.18
318.15 K | 75.21 | 75.18 | 75.11 | 75.03 | 75.03 | 74.86 | 74.56 | 74.25
323.15 K | 75.24 | 75.2 | 75.14 | 75.06 | 75.06 | 74.89 | 74.61 | 74.32
328.15 K | 75.27 | 75.24 | 75.17 | 75.1 | 75.09 | 74.94 | 74.66 | 74.39
333.15 K | 75.31 | 75.28 | 75.21 | 75.14 | 75.14 | 74.99 | 74.72 | 74.45
